Assay results reported in patent US12258477B2, “Silicon-substituted rhodamine dyes and dye conjugates” (Life Technologies Corporation, priority 2018, dated 2025).
“Also recorded” adds a separate entry of the source.

Columns and labels:
[1] = Excitation and emission maxima of compounds dissolved in solvents; type: physicochemical
Protocol: Certain compounds were tested when dissolved in solvents. Three replicates were performed to determine the excitation and emission maxima.

tubulin [2] = assay: Tubulin staining of live cells with docetaxel probes vs SiR-Taxol (Examples 3, 13); type: cell-based; conditions: live HeLa, 0.5 μM, 30 min 37 °C
Protocol: The fluorescence intensity of Compound 5 (a tubulin probe using docetaxel as the target-binding moiety) was compared to SiR-Taxol (Spirochrome, Switzerland). Live HeLa cells were stained with 0.5 μM Compound 5 or SiR-Taxol for 30 minutes at 37° C. and prepared for imaging. Images are shown in FIGS. 4A-4B (stained with Compound 5), and FIGS. 4C-4D (stained with SiR-Taxol).
The fluorescence intensity of two diasteromers of Compound 5 and a mixture of two isomers was compared to SiR-Taxol (Spirochrome, Switzerland). Live HeLa cells were stained with 0.5 μM of each compound for 30 minutes at 37° C. and prepared for imaging.

[3] = Fluorescence characteristics of goat anti-mouse (GAM) IgG conjugates in PBS; type: physicochemical; conditions: for Max Abs / Max Em: GAM IgG conjugate in PBS; for Absorption of IgG conjugates / Emission of IgG conjugates: Table 6, IgG conjugates in PBS
Protocol: (§1) The fluorescence characteristics of various disclosed compounds and ALEXA FLUOR™ 647 dye (AF647) dissolved in water (dye only) or as goat anti-mouse (GAM) IgG conjugates dissolved in phosphate buffered saline (PBS) were determined. Three replicates were performed to determine the excitation and emission maxima and quantum yield. Quantum yield was measured for the dye only samples.
The effect of conjugation of an SiR, in this example Compounds 8, 10A, and 12, to IgG on absorbance (shown in FIG. 11A) and on emission (shown in FIG. 11B) maxima were compared with IgG-AF647. The absorption and emission maxima of the SiR-conjugates (665 nm/690 nm) are approximately 20 nm red-shifted compared with AF647 conjugate. The emission maximum shifted 15 nm to red.

[4] = Fluorescence characteristics, dye only dissolved in water; type: physicochemical; conditions: for Emission in water (λem) / absorption in water (λabs): Table 6, in water; for shift of absorption maxima to blue when each vinyl group was changed to a methyl: relative to Compound 11
Protocol: as §1
Experiments were performed to examine the effect of different SiR substitution patterns on absorption maxima using Compounds 10A, 11, 12, and 13. One or both of the vinyl groups of Compound 11 are replaced with methyl in Compounds 10A and 12, respectively. In Compound 13, one methyl group on each of the two exocyclic amines was eliminated relative to Compound 12. […] A 30 nm shift was observed when one methyl group on each of the two exocyclic amines was eliminated (Table 6). Therefore, modification of SiR dyes using groups linked to the SiR moiety through the Si have a smaller effect than the removal of methyl groups.

A549 cells = assay: Photobleaching of dye-labeled secondary antibody conjugates in fixed cells without anti-fade medium; type: cell-based; conditions: GAM antibody conjugates (13 DOL 4.7, 14 DOL 4.0, AF647 DOL 4.9); over 700 seconds exposure, no anti-fade medium
Protocol: A549 cells were plated at a density of 5,000 cells per well on Greiner 96 well plates and allowed to adhere overnight. The following day, they were treated for two hours at 37° C. with 50 μM etoposide to induce phosphorylation of pH2AX for antibody probing, then fixed for 20 minutes at room temperature in 4% PFA, prepared in PBS. After fixation, cells were rinsed 3× in PBS and permeabilized for 20 minutes with 0.1% Triton X-100, prepared in PBS. Following Triton treatment, cells were washed 3× in PBS and placed in blocking solution, made with 3% BSA in PBS. Each plate was treated with primary antibody, prepared in blocking solution at 5 μg/mL, either […]. Following incubation with primary antibody, cells were washed 3× in PBS and stored in blocking solution before probing with secondary antibody. Secondary antibody labeled with Compound 13 (DOL 4.7); Compound 14 (DOL 4.0) or AF647 (DOL 4.9) was prepared from 5 μg/mL in blocking solution and cells were incubated for one hour at room temperature before washing 3× in PBS and moving plates to the CX-5 CellInsight for quantification of signal. The fluorescent signal data was collected every second for over 700 seconds' period. […]
Fluorescence intensity was monitored in samples mounted without anti-fade medium over a period of about 12 minutes of exposure to excitatory light.

tubulin [5] = assay: Immunofluorescence tubulin staining with dye-labeled antibody conjugates vs AF647 (Example 9); type: cell-based, mouse
Protocol: The fluorescence intensity of SiR conjugates, Compound 10A (DOL=15) and Compound 10A (DOL=10), where DOL is the degree of labeling, were compared to an AF647 conjugate using fluorescence microscopy. Live mouse cells were stained with mouse anti-tubulin conjugated to AF647 (shown in FIG. 12A), or mouse anti-tubulin conjugated with Compound 10A (DOL=15 shown in FIG. 12B) at increasing concentrations for 60 minutes at 25° C. After washing with PBS buffer to remove excess dye, images were collected using the Cy5 channel of a fluorescence microscope and analyzed using integrated software. […] The SiR dyes gave images 6-8 fold dimmer that AF647 in the Cy5 channel, consistent with the shifted maxima discussed above. […] Little to no photobleaching was observed during imaging.

Fixed HeLa cells = assay: Fixed cell nuclear staining and photostability vs TO-PRO-3 (Example 4); type: cell-based; conditions: 1 μM, Cy5 channel
Protocol: The fluorescence intensity and photostability of Compound 7 were compared with TO-PRO-3, a fixed cell nucleic acid stain with far-red fluorescence. Fixed HeLa cells were stained with 1 μM Compound 7 or TO-PRO-3 for 30 minutes at RT and prepared for imaging using the Cy5 channel of a fluorescence microscope.

Live HeLa cells [6] = assay: Live cell nuclear staining, fluorescence microscopy vs SiR-Hoechst (Example 2); type: cell-based; conditions: 1 μM and 2 μM
Protocol: The fluorescence intensity of Compound 4 was compared to SiR-Hoechst (Spirochrome, Switzerland) using fluorescence microscopy. Live HeLa cells were stained with SiR-Hoechst or Compound 4 at 1 μM or 2 μM for 30 minutes at 37° C. After washing with LCIS buffer to remove excess dye, images from 5 replicates were collected using the Cy5 channel of a fluorescence microscope and analyzed using HCS Studio software. Representative images of cells are shown in FIGS. 3A-3B (stained with SiR-Hoechst) and FIGS. 3C-3D (stained with Compound 4). […] The mean nuclear signal intensity was 48% higher in the cells stained with Compound 4 than in the cells stained with SiR-Hoechst, based on averaging the ratios of fluorescence intensity at 1 μM and 2 μM.

Live HeLa cells [7] = assay: Live cell nuclear staining with ESP-SiR isomers, HeLa (Example 12); type: cell-based; conditions: 1 μM, 30 min 37 °C
Protocol: The fluorescence intensity of each isomer of Compound 4 (Compound 4B and Compound 4C) was compared using fluorescence microscopy. A DMSO stock solution (1 mM) was used to prepare solutions of each isomer to a final concentration of 5, 2.5, 1.25 and 0.6 μM in PBS containing probenecid.
Live HeLa or A549 cells were stained with each concentration of isomer for 30 minutes at 37° C. After washing with LCIS buffer to remove excess dye, images from 5 replicates were collected using the Cy5 channel of a fluorescence microscope and analyzed using HCS Studio software. […] The mean nuclear signal intensity was almost 2-fold higher in both cell types stained with Compound 4B than in the cells stained with Compound 4C at each of the concentrations tested.
The fluorescence intensity of Compound 4B and 4C was compared to SiR-Hoechst (Spirochrome, Switzerland) using fluorescence microscopy. Live HeLa cells were stained with SiR-Hoechst or Compound 4B or 4C at 1 μM for 30 minutes at 37° C. After washing with LCIS buffer to remove excess dye, images from 5 replicates were collected using the Cy5 and D API channels of a fluorescence microscope and analyzed using HCS Studio software.

Compound	Max Abs [3]	Max Em [3]	Absorption of IgG conjugates [3]	Emission of IgG conjugates [3]	Max Abs ([4]; Dye Only in water)	Max Em ([4]; Dye Only in water)	Quantum Yield ([4]; Dye Only in water)	Quantum Yield ([4]; Table 6)	Emission in water (λem) [4]	absorption in water (λabs) [4]	other results
CC(=O)O[C@@]12CO[C@@H]1C[C@H](O)[C@@]1(C)C(=O)[C@H](O)C3=C(C)[C@@H](OC(=O)[C@H](O)[C@@H](NC(=O)CCCCCNC(=O)CCSCC[Si]4(C)C5=CC(=[N+](C)C)C=CC5=C(c5ccccc5C(=O)[O-])c5ccc(N(C)C)cc54)c4ccccc4)C[C@@](O)([C@@H](OC(=O)c4ccccc4)C12)C3(C)C (stereo partly shown) [Compound 5]	–	–	–	–	–	–	–	–	–	–	Max Abs ([1]; Solvent MeOH/HCl): 650 nm; Max Em ([1]; Solvent MeOH/HCl): 676 nm; fluorescence signal compared with SiR-Taxol (tubulin [2]): brighter signal than cells stained with SiR-Taxol
Si,Si-dimethyl-N, N-tetramethyl-SiR [Compound 12]	662 nm	681 nm	664 nm	683 nm	661 nm	673 nm	0.45	45%	673 nm	661 nm	shift of absorption maxima to blue when each vinyl group was changed to a methyl [4]: about 5 nm
Si,Si-dimethyl-N, N-dimethyl-SiR [Compound 13]	635 nm	655 nm	635 nm	655 nm	630 nm	642 nm	0.5	50%	642 nm	630 nm	resistance to photobleaching (A549 cells): substantially resistant to photobleaching; also recorded: much more resistant to photobleaching; shift of absorption maxima when one methyl group on each of the two exocyclic amines was eliminated ([4]; relative to Compound 12): 30 nm
Si-vinyl-Si-methyl-N,N-tetramethyl-SiR [Compound 10A]	–	–	668 nm	688 nm	–	–	–	41%	678 nm	666 nm	photobleaching during imaging / photostability vs AF647 (tubulin [5]): better photostability than AF647; target specificity, off-target or background fluorescence (tubulin [5]): no off-target or background fluorescence; brightness compared with AF647 (tubulin [5]; Cy5 channel): less bright than AF647; shift of absorption maxima to blue when each vinyl group was changed to a methyl [4]: about 5 nm
CN(C)c1ccc2c(c1)[Si](C)(C)C1=CC(=[N+](C)C)C=CC1=C2c1ccccc1C(=O)N1CCC(C(=O)O)CC1 [Compound 7A]	–	–	–	–	–	–	–	–	–	–	Max Abs ([1]; Solvent MeOH): 657 nm; Max Em ([1]; Solvent MeOH): 682 nm
C=C[Si]1(C=C)c2cc(N(C)C)ccc2C2(OC(=O)c3ccccc32)c2ccc(N(C)C)cc21 [Compound 11, Si,Si-Divinyl-N,N-tetramethyl-SiR]	671 nm	693 nm	671 nm	692 nm	670 nm	683 nm	0.38	38%	683 nm	670 nm	–
CN1CCN(c2ccc3[nH]c(-c4ccc5[nH]c(-c6ccc(OCCCCNC(=O)C7CCN(C(=O)c8ccccc8C8=C9C=CC(=[N+](C)C)C=C9[Si](C)(C)c9cc(N(C)C)ccc98)CC7)cc6)nc5c4)nc3c2)CC1 [Compound 7]	–	–	–	–	–	–	–	–	–	–	staining brightness, Compound 7 vs TO-PRO-3 (Fixed HeLa cells; 30 min RT): unexpectedly brighter than TO-PRO-3 staining; fluorescence after a 1 minute exposure to excitation light (Fixed HeLa cells): still retained substantial fluorescence; Max Abs ([1]; Solvent TE): 672 nm; Max Em ([1]; Solvent TE): 678 nm
C[n+]1c(/C=C/C=C2\C=CN(CCC[N+](C)(C)C)c3ccccc32)sc2ccccc21 [TO-PRO-3, reference compound]	–	–	–	–	–	–	–	–	–	–	fluorescence after a 1 minute exposure to excitation light (Fixed HeLa cells): little to no fluorescence was observable; also recorded: more diminished
CN1CCN(c2ccc3[nH]c(-c4ccc5[nH]c(-c6ccc(OCCCCNC(=O)CCSCC[Si]7(C)C8=CC(=[N+](C)C)C=CC8=C(c8ccccc8C(=O)[O-])c8ccc(N(C)C)cc87)cc6)nc5c4)nc3c2)CC1 (stereo not shown) [Compound 4]	–	–	–	–	–	–	–	–	–	–	mean nuclear signal intensity, higher than in cells stained with SiR-Hoechst (Live HeLa cells [6]; live HeLa, 30 min 37 °C, Cy5 channel, averaged ratios of fluorescence intensity): 48%; staining brightness compared with SiR-Hoechst (Live HeLa cells [6]; live cells): noticeably brighter
CN1CCN(c2ccc3nc(-c4ccc5nc(-c6ccc(OCCCCNC(=O)c7ccc(C(=O)[O-])c(C8=C9C=CC(=[N+](C)C)C=C9[Si](C)(C)c9cc(N(C)C)ccc98)c7)cc6)[nH]c5c4)[nH]c3c2)CC1 [SiR-Hoechst]	–	–	–	–	–	–	–	–	–	–	signal on the DAPI channel (Live HeLa cells [7]): almost no signals were observed
